Data on 2 compounds can be found in ChEMBL document CHEMBL4610128, “Structural and Mechanistic Basis of the Inhibitory Potency of Selected 2-Aminothiazole Compounds on Protein Kinase CK2” (J Med Chem, 2020).

Test [1] addresses Casein kinase II alpha/beta (Homo sapiens, UniProt P68400). The test can be described thus: ATP competitive inhibition of recombinant human CK2alpha2 (1 to 335 residues)/CK2beta2 (1 to 193 residues) expressed in Escherichia coli BL21(DE3) using RRRDDDSDDD as substrate preincubated for 10 mins followed by substrate addition and measured after 5 mins in presence of varying level of [gamma-32P]ATP by Dixon-plot analysis.

In test [2] the target is Casein kinase II alpha'/ beta (Homo sapiens) (UniProt P67870+P19784). Put plainly: Ratio of Ki for ATP uncompetitive inhibition to Ki for ATP competitive inhibition of recombinant human CK2alpha2 (1 to 335 residues)/CK2beta2 (1 to 193 residues) expressed in Escherichia coli BL21(DE3).

The structures appear in SMILES notation.

As a reminder, the Ki is the equilibrium dissociation constant of an inhibitor or competing ligand from its target. Regarding `O=C(O)c1ccc(Nc2nc(-c3ccc(Cl)cc3)cs2)cc1O`, the inhibitory constant (Ki) in test [1] came out at 206 nM. In test [2], the Ratio Ki was 16.3.

On to `O=C(O)c1cccc(Nc2nc(-c3ccccn3)cs2)c1`, for which the inhibition constant Ki in test [1] was 1470 nM. In addition, the Ratio Ki in test [2] was found to be 36.5.
